Earlier results on four compounds are cited in article PMC4891657, “Orexin 2 Receptor Antagonism is Sufficient to Promote NREM and REM Sleep from Mouse to Man” (Scientific Reports, 2016).

Each structure is given as a SMILES string.

The test system of one data set is OX2R relative to OX1R. To be noted: cited from earlier work.
In a further data set the test system is OX2R. Details: method as in PMID 24376396, PMID 24368893. The conditions noted are these: mice, 50 mg/kg ref 37, 38; cited from earlier work.

Take `Cc1cc(NC(=O)Nc2ccc(N(C)C)cc2)c2cc(F)cc(F)c2n1` [SB-408124]: in the data set on OX2R relative to OX1R, the OX1R selective was ~ 64 x. `CC1(C)OC[C@H](NC(=O)Nc2ccc(Br)cc2Br)[C@H](c2ccccc2)O1` [JNJ-10397049]: the OX2R selective in the data set on OX2R relative to OX1R was ~ 320 x.

`COc1ccnc(N2CCC3(CCCN(Cc4c[nH]c5ccccc45)C3=O)CC2)n1` [IPSU]: the “calculated OX2R occupancy achieved” value with OX2R was 48%. In addition, the OX2R/OX1R selectivity in the data set with OX2R relative to OX1R was 6.2 fold. For `Cc1cc(C)nc(N2CC3CN(C(=O)c4c(F)cccc4-n4nccn4)CC3C2)n1` (centres unmarked) [JNJ-42847922], the “binding selectivity for OX2R relative to OX1R” value in the data set with OX2R relative to OX1R is ~ 80 fold.
